In the experiment the target is T1, Serine/threonine-protein kinase 4 (Human, UniProt Q13043).
T1 sequence (Q13043 whole entry): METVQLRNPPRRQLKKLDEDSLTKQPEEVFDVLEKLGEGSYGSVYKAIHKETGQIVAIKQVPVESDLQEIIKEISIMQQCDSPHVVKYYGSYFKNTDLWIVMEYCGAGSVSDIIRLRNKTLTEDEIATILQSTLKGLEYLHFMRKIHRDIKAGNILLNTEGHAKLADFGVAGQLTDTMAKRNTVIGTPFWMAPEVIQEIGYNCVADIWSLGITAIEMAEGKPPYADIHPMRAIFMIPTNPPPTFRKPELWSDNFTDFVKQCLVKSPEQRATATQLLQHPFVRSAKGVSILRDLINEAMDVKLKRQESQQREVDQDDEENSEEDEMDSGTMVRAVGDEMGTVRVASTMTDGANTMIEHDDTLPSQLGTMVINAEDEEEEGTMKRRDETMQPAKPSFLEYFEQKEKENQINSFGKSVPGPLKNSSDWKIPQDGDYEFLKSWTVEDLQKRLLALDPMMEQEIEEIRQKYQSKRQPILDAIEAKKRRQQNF
Kind of experiment: Biochemical Assay. The protocol:
Biochemical IC50s were measured at Invitrogen using Z-lyte technology. Briefly, for STK4, the 2×STK4 (MST1)/Ser/Thr 07 mixture was prepared in 50 mM HEPES pH 7.5, 0.01% BRIJ35, 10 mM MgCl2, 1 mM EGTA. The final 10 μL Kinase Reaction consisted of 6.25-160 ng STK4 (MST1) and 2 μM Ser/Thr 07 in 50 mM HEPES pH 7.5, 0.01% BRIJ-35, 10 mM MgCl2, 1 mM EGTA. After the 1 hour Kinase Reaction incubation, 5 μL of a 1:100000 dilution of Development Reagent A was added. Compounds were screened in a 10 point titration with 3-fold serial dilutions starting at a concentration of 10 μM. The biochemical IC50s against other STK family members were measured similarly. The ATP concentration used matched the Km for each kinase.

SMILES strings stand for the structures.

Results on two compounds are retold here after BindingDB's records for patent US10710978 (DANA-FARBER CANCER INSTITUTE, INC.; FONDAZIONE CENTRO SAN …, 2020).

As usually defined, the IC50 is the point on the concentration scale where inhibition reaches its midpoint. A high value points to a need for much substance. As for `Nc1ncc(-c2cccc3sccc23)cc1-c1ccc2c(c1)CCNC2=O` [US10710978, Compound I-15], the IC50 was < 0.04 µM.

As to `Cc1cc(S(=O)(=O)N(C)C2CC2)ccc1-c1cnc(N)c(-c2ccc3c(c2)CCNC3=O)c1` [US10710978, Compound I-46], the half-inhibitory concentration (IC50) was < 0.04 µM.
